This note sets out measurements from patent US11878049B1, “Mitapivat therapy and modulators of cytochrome P450” (Agios Pharmaceuticals, Inc., priority 2019, dated 2024).

Data set [1] deals with CYP3A4/5. Briefly: CYP-enzyme phenotyping using human liver microsomes and recombinant CYP enzymes. It counts as in vitro ADME. (Microsomes from liver hold many membrane-bound enzymes, among them those of drug oxidation.)
The target in data set [2] is T1, CYP1A2 (Homo sapiens, UniProt P05177).
T1 construct: CYP-enzyme phenotyping using human liver microsomes and recombinant CYP enzymes; from tissue; host or cells: human liver microsomes
T1 sequence (P05177 whole entry): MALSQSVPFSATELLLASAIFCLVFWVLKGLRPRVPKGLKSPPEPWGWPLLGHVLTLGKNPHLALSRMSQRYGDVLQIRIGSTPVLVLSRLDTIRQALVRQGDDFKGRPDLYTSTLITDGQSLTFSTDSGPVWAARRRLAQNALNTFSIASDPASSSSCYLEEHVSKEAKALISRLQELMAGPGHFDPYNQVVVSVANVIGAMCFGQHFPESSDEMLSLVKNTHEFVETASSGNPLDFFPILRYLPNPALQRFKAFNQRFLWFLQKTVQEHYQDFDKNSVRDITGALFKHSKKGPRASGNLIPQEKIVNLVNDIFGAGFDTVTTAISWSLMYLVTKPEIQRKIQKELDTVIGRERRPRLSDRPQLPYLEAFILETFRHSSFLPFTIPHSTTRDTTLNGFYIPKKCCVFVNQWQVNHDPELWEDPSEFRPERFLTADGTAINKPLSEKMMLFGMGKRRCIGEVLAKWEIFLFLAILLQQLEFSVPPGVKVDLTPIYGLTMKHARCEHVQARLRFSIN
Described as above. It is filed as in vitro ADME.

A short description of data set [3]: Drug-drug interaction study Part 1: plasma PK after 20 mg mitapivat sulfate alone or with itraconazole. The note with it: for Total exposure in the presence of itraconazole compared to dosing of mitapivat sulfate alone: 20 mg mitapivat sulfate, 200 mg itraconazole; for AUC(0-inf) / AUC(0-t) / Cmax: both sexes, human, healthy subjects; for AUC(0-inf): read-out: AUC0-inf, Geometric LSM; for AUC(0-t): read-out: AUC0-t, Geometric LSM; for Cmax: read-out: Cmax, Geometric LSM. It counts as in vivo, human. As to the method: (§1) Twenty-eight (28) healthy, adult male and female (non-childbearing potential) subjects were enrolled in the study in total; 14 subjects in each study part (Parts 1 and 2). A minimum of 8 female subjects were enrolled in the study (i.e., a minimum of 4 female subjects per study part). Each subject participated in either Part 1 or Part 2, but not both.
On Day 1 of Treatment Period 1, a single oral dose of 20 mg mitapivat sulfate was administered. Serial blood samples for plasma assay of mitapivat concentrations and its CYP3A4 metabolite, referred to herein as the “Metabolite” (structure below),
[drawing 3] were collected from predose to 120 hours following administration of mitapivat sulfate. In Treatment Period 2, an oral dose of 200 mg itraconazole was administered once daily (QD) for 9 consecutive days (Day 1 through Day 9 of Treatment Period 2) with a single oral dose of 20 mg mitapivat sulfate coadministered on Day 5. Serial blood samples for plasma assay of mitapivat and the Metabolite concentrations were collected from predose to 120 hours following coadministration of mitapivat sulfate and itraconazole on Day 5.
In Treatment Period 1, mitapivat sulfate was administered orally with approximately 240 mL of water. In Treatment Period 2, on Days 1 to 4, itraconazole was administered alone immediately followed by approximately 220 mL of water, and on Day 5, itraconazole was administered first (no water) and was immediately followed by mitapivat sulfate administration with approximately 220 mL of water. Study drugs (mitapivat sulfate and itraconazole) were administered following an overnight fast of at least 10 hours on Day 1 of Treatment Period 1 (mitapivat sulfate only) and Day 5 of Treatment Period 2 (mitapivat sulfate and itraconazole), and subjects remained fasted for 4 hours after dosing. On all other dosing days, itraconazole was administered following a predose fast of at least 4 hours and subjects remained fasted for at least 2 hours after dosing.
Mitapivat sulfate (20 mg tablets) administered along with Itraconazole (also referred to as Sporanox®, 10 mg/mL oral solution, is considered as the test arm in this study. Mitapivat sulfate administered alone is considered as the reference arm in this study. In Period 1, a single oral dose of 20 mg mitapivat sulfate was administered orally with approximately 240 mL of water. In Period 2, on Day 5 (coadministration of itraconazole and mitapivat sulfate), 200 mg itraconazole (20 mL of 10 mg/mL oral solution) was administered first (no water) and was immediately followed by 20 mg mitapivat sulfate (1×20 mg tablet) administration with approximately 220 mL of water. On all other dosing days, itraconazole was administered alone immediately followed by approximately 220 mL of water. Each subject received 2 doses of mitapivat sulfate and 9 doses of itraconazole in Part 1.
(§2) In Parts 1 and 2, for mitapivat and the Metabolite, blood samples were obtained for all subjects to determine the plasma concentrations of mitapivat, and the Metabolite, before mitapivat sulfate dosing (0 hour) on Day 1 of Period 1 (Parts 1 and 2) and Day 5 (Part 1) or Day 8 (Part 2) of Period 2 at 0.5, 1, 1.5, 2, 3, 4, 5, 6, 8, 12, 16, 24, 48, 72, 96, and 120 hours postdose. Plasma concentrations of mitapivat and the Metabolite were determined using methods validated with respect to accuracy, precision, linearity, sensitivity, and specificity, with a lower limit of quantitation (LLOQ) of 0.5 ng/mL for both analytes. A noncompartmental PK approach was used to analyze individual plasma mitapivat and the Metabolite concentration time data (using Phoenix® WinNonlin® Version 7.0). The following PK parameters were calculated: AUC0-t, AUC0-inf, AUC0-24, AUC%extrap, Cmax, CL/F (mitapivat only), Tlast, Tmax, t½, and Vz/F (mitapivat only).
(§3) PK parameters were presented with a minimum of 3 significant figures. […]

Data set [4] can be described thus: Drug-drug interaction study Part 2: plasma PK after 50 mg mitapivat sulfate alone or with rifampin. It is filed as in vivo, human. The note with it: for Nominal time of peak arithmetic mean concentration: postdose; for Nominal time of peak arithmetic mean concentration / AUC(0-inf) / AUC(0-t) / Cmax: plasma; for Total exposure in the presence of rifampin compared to dosing of mitapivat sulfate alone: 50 mg mitapivat sulfate, 600 mg rifampin; for AUC(0-inf) / AUC(0-t) / Cmax: both sexes, human, healthy subjects; for AUC(0-inf): read-out: AUC0-inf, Geometric LSM; for AUC(0-t): read-out: AUC0-t, Geometric LSM; for Cmax: read-out: Cmax, Geometric LSM. As to the method:
as §1
On Day 1 of Treatment Period 1, a single oral dose of 50 mg mitapivat sulfate was administered. Serial blood samples for plasma assay of mitapivat and the Metabolite concentrations were collected from predose to 120 hours following administration of mitapivat sulfate. In Treatment Period 2, an oral dose of 600 mg rifampin was administered QD for 12 consecutive days (Day 1 through Day 12 of Treatment Period 2) with a single oral dose of 50 mg mitapivat sulfate coadministered on Day 8. Serial blood samples for plasma assay of mitapivat sulfate and the Metabolite concentrations were collected from predose to 120 hours following coadministration of mitapivat and rifampin on Day 8.
In Part 2, study drugs were administered with approximately 240 mL of water on all dosing days including the coadministration of mitapivat sulfate and rifampin on Day 8 of Treatment Period 2. Mitapivat sulfate and rifampin was administered following an overnight fast of at least 10 hours on Day 1 of Treatment Period 1 (mitapivat sulfate only) and Day 8 of Treatment Period 2 (both mitapivat sulfate and rifampin) and subjects remained fasted for 4 hours after dosing. On all other dosing days, rifampin was administered following a predose fast of at least 4 hours and subjects remained fasted for at least 2 hours after dosing. There was a washout period of 7 days between the mitapivat sulfate dose in Treatment Period 1 and the first itraconazole (Part 1) or rifampin (Part 2) dose in Treatment Period 2. All study drugs were consumed within 5 minutes for both Part 1 and Part 2.
Mitapivat sulfate (50 mg tablets) administered along with Rifampin (also referred to as Rifadin®, 300 mg capsules) is considered as the test arm in this study. Mitapivat sulfate (50 mg tablets) administered alone is considered as the reference arm in this study.
In Period 1, a single oral dose of 50 mg mitapivat sulfate was administered orally. In Period 2, subjects were administered 600 mg rifampin (2×300 mg capsules) QD on Day 1 to Day 12 inclusive, with 50 mg mitapivat sulfate (1×50 mg tablet) coadministered on Day 8. Study drugs were administered with approximately 240 mL of water on all dosing days including the coadministration of mitapivat sulfate and rifampin on Day 8 of Period 2.
as §2, §3

Data set [5] addresses CYP2C9 (Homo sapiens, UniProt P11712). The data set can be described thus: CYP-enzyme phenotyping using human liver microsomes and recombinant CYP enzymes. It is filed as in vitro ADME. Further details: CYP-enzyme phenotyping using human liver microsomes and recombinant CYP enzymes; from tissue; host or cells: human liver microsomes.
[6] abbreviates: plasma, 20 mg mitapivat sulfate oral alone (Reference).
Setting [7] is: plasma, 20 mg mitapivat sulfate oral on Day 5 + 200 mg itraconazole QD Days 1-9 (Test).
[8] abbreviates: 50 mg mitapivat sulfate coadministered with 600 mg rifampin (Period 2).
The mark [9] stands for this setting: 50 mg mitapivat sulfate given alone (Period 1).
Setting [10] is: 50 mg mitapivat sulfate oral alone (Reference).
Setting [11] is: 50 mg mitapivat sulfate oral on Day 8 + 600 mg rifampin QD Days 1-12 (Test).

Sequence of CYP2C9 (P11712 whole entry): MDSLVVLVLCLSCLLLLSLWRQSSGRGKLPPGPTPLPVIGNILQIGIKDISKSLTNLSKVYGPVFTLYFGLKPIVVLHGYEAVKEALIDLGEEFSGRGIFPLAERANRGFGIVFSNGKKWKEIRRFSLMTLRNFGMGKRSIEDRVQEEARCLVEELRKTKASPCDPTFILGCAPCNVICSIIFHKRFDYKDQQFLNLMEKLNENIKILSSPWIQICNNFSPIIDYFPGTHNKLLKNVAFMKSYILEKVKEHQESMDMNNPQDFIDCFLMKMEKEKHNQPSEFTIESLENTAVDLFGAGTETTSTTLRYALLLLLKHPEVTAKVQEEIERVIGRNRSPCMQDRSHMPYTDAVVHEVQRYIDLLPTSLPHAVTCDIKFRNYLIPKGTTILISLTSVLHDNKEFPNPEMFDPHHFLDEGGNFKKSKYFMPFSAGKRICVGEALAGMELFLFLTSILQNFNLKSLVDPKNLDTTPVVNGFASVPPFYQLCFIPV

Usually Cmax stands for the maximum level reached in the sampled fluid or tissue. As for `O=C(c1ccc(NS(=O)(=O)c2cccc3cccnc23)cc1)N1CCN(CC2CC2)CC1` [Mitapivat, N-(4-(4-(cyclopropylmethyl)piperazine-1-carbonyl)phenyl)quinoline-8-sulfonamide], in data set [1], the “Share of metabolism by CYP3A4/5 (primarily metabolized by)” value was above 90%. The “Contribution of CYP1A2 to metabolism” value in data set [2] is listed as “minor contributions”. In data set [3], the “Total exposure in the presence of itraconazole compared to dosing of mitapivat sulfate alone” value is “increased”. In addition, the AUC(0-inf) in data set [3] (setting [6]) is 1940 ng·h/mL; in data set [3] (setting [7]) it was 9480 ng·h/mL; in data set [4] (setting [10]), 5680 ng·h/mL; in data set [4] (setting [11]), 496 ng·h/mL. In addition, the AUC(0-t) in data set [3] (setting [6]) amounted to 1880 ng·h/mL; in data set [3] (setting [7]) it was 8860 ng·h/mL; in data set [4] (setting [10]), 5560 ng·h/mL; in data set [4] (setting [11]), 486 ng·h/mL. Further, the Cmax is 412 ng/mL in data set [3] (setting [6]), 704 ng/mL in data set [3] (setting [7]), 1260 ng/mL in data set [4] (setting [10]) and 292 ng/mL in data set [4] (setting [11]). Also, the “Delay in time to peak concentration” value in data set [3] (coadministered with itraconazole compared to administered alone, plasma) is on record as “approximately 2 hours”. The “Nominal time of peak arithmetic mean concentration” value in data set [4] (setting [8]) is around 0.5 h; in data set [4] (setting [9]) it was “approximately 1 hour”. For the same compound, the “Total exposure in the presence of rifampin compared to dosing of mitapivat sulfate alone” value in data set [4] is “decreased”. For the same compound, in data set [5], the “Contribution of CYP2C9 to metabolism” value is “minor contributions”.

As to `O=C(c1ccc(NS(=O)(=O)c2cccc3cccnc23)cc1)N1CCNCC1` [Metabolite], the “Total exposure in the presence of itraconazole compared to dosing of mitapivat sulfate alone” value in data set [3] is “increased”. The AUC(0-inf) is 216 ng·h/mL in data set [3] (setting [6]), 339 ng·h/mL in data set [3] (setting [7]), 663 ng·h/mL in data set [4] (setting [10]) and 245 ng·h/mL in data set [4] (setting [11]). In addition, the AUC(0-t) was 197 ng·h/mL in data set [3] (setting [6]), 300 ng·h/mL in data set [3] (setting [7]), 623 ng·h/mL in data set [4] (setting [10]) and 230 ng·h/mL in data set [4] (setting [11]). Moreover, the Cmax is 18.8 ng/mL in data set [3] (setting [6]), 9.11 ng/mL in data set [3] (setting [7]), 53.8 ng/mL in data set [4] (setting [10]) and 64.5 ng/mL in data set [4] (setting [11]). Also, the “Nominal time of peak arithmetic mean concentration” value in data set [4] (setting [8]) is around 1 h; in data set [4] (setting [9]), “approximately 2 hour”. Further, in data set [4], the “Total exposure in the presence of rifampin compared to dosing of mitapivat sulfate alone” value is “decreased”.
